Marks after values point to notes of the source that are not given here.
Tests used:
[1] = tested on: corticosterone (CORT) induced aging rats; assay: CORT-induced aging rats: body weight, serum and liver biochemistry, liver telomere length; type: in vivo, Wistar rats; details: oral gavage daily 21 days, O-CP30/O-CP300 = 30/300 mg HED, NR 300 mg HED, mean ± SD
Procedure: Wistar rats (n=7 in each group; 8 weeks old) were used and animals were reared at the temperature of (22±2° C.), humidity (55±5%) and a 12/12 hour light/dark cycle. Pellet food and water were provided ad libitum. The experiment was conducted under the protocol approved by Firat University. Two control groups were taken for studies. The normal control group was given phosphate-buffered saline (PBS) and the CORT control was given corticosterone (CORT). Doses of O-CPs and NR were determined based on the Human Equivalent Dose (HED) for Drug Development according to Shin et al. (2010). Conversion of human doses to animal doses was based on body surface area. A conversion factor of 6.17 was used to convert human doses to rat doses. The human equivalent dose was 30 mg and 300 mg for O-CPs and 300 mg for nicotinamide riboside. CORT (Sigma-Aldrich Co., St. Louis, Mo., USA) was suspended in saline with 0.1% Tween 80% and 0.2% DMSO. Rats in groups 2-7 were injected daily with CORT (40 mg/kg) subcutaneously for 21 consecutive days. All injections were performed in a volume of 2 ml/kg body weight, between 7:00 and 7:10 p.m. The rats were dosed with study product involving various dosages of O-CPs, NR and their combination by oral gavage, which was administered daily for 21 days. Serum levels of glucose, triglycerides, cholesterol, aspartate aminotransferase (AST), alanine aminotransferase (ALT), urea, and creatinine were analyzed with a portable automated chemistry analyzer (Samsung LABGEO PT10, Samsung Electronics Co., Suwon, Korea). Total serum CORT levels, and levels of nicotinamide adenine dinucleotide (NAD+) and NAD+ precursors such as nicotinamide (Nam), tryptophan (Trp), nicotinic acid (Na) and nicotinamide mononucleotide (NMN) and NADPH were measured […] using a commercial kit following the manufacturer's instructions by ELISA (Elx-800, Bio-Tek Instruments Inc, Vermont, USA). Telomere length in the liver was determined by qPCR. Telomerase activity was measured according to the telomerase repeat amplification protocol using a Trapeze kit (Chemicon/Millipore, Billerica, Mass.). The levels of glutathione (GSH) and reactive oxygen species (ROS) in the rat liver were determined using the corresponding commercial ELISA kits (Wako Pure Chemical Industries) according to the manufacturer's instructions. Serum levels of malondialdehyde (MDA) were analyzed by High Performance Liquid Chromatography (HPLC). Antioxidant enzymes [superoxide dismutase (SOD), catalase (CAT), glutathione peroxidase (GSHPx)] were measured using the relevant commercial kits according to the enzyme-linked immunosorbent assay (ELISA, Elx-800, Bio-Tek Instruments Inc, Vermont, USA) method. The samples size of the study was determined to be totally 49 rats (n=7; 7 groups) with the help of G*Power package program (Version 3.1.9.2) with alpha error 0.05 and 90% power with effect size 0.7 calculated from previous studies. The data was analyzed using statistical analysis software (SPSS 17.0). In this study, conformity to the assumption of normality from the prerequisites of the parametric tests was performed using the “Shapiro-Wilk” test and the homogeneity of the variances were checked with the “Levene” test. Analysis of variance (ANOVA) test was performed to determine the differences between the groups and post-hoc Tukey test was used for multiple comparisons of the groups. Statistical significance was accepted as P<0.05.

[2] = tested on: LPS-induced pyrexia in mice; assay: LPS-induced pyrexia in mice: serum biochemistry, liver and lung antioxidant enzymes, pyrexia; type: in vivo, BALB/c mice; details: oral, 2 weeks before LPS, HED Se 200 μg, Zn 30 mg, O-CPs 300 mg, mean ± SD; for ALP / ALT / AST / BUN / Creatine / LDH / T Bilirubin: serum
Procedure: Six-week-old male BALB/c mice was purchased from the Firat University Experimental Animal Center. All mice were ad libitum access to standard rodent chow and water during the study. Mice were housed in cages throughout the study. The following conditions were maintained: temperature, 22±2° C.; relative humidity, 55±5%; and a 12-hours light: dark cycle. The care and treatment of the animals were in accordance with the guidelines established by the Use of Laboratory Animals and were approved by the Animal Care and Use Committee of Firat University. Two control groups were taken for studies. The normal control group was given PBS and the other control was given lipopolysaccharides (LPS) along with a vehicle, i.e., phosphate buffered saline. Forty-two mice were randomly divided into 6 treatment groups with 7 mice in each group as follows: Selenomethionine, zinc picolinate and O-CPs or vehicle were orally administered 2 weeks before LPS treatment. Control mice received 50 μL of PBS. Subsequently, rats in Groups 2 through 6 received LPS (0.04 mg/kg i.p.) 30 min after active treatment with Se, ZnPic, and O-CPs. Basal temperature readings for all treatments and LPS injections were done between 8.00 and 9.00 GMT to avoid temperature differences due to circadian rhythm. The change in rectal temperature in all rats were recorded 30 min after PBS or LPS injection and at subsequent 30 min intervals for 4 hours. After 6 hours of LPS treatment, the mice were euthanized and their blood, liver and lungs were collected for further analysis. Doses of selenomethionine, zinc picolinate and O-CPs were determined based on the Human Equivalent Dose (HED) for Drug Development according to Shin et al. (2010). Conversion of human doses to animal doses were based on body surface area. A conversion factor of 12.33 was used to convert human doses to mouse doses. The human equivalent dose was 200 μg of selenium (Se) from selenomethionine, 30 mg of zinc (Zn) from zinc picolinate and 300 mg of O-CPs. Selenomethionine dose: 200 μg/70 kg=2.86 μg/kg/day human*12.33=35.23 μg/kg/day per mouse; Zinc picolinate (20%) dose: 30 mg/70 kg=0.428 mg/kg/day human*12.33=5.28 elemental zinc mg/kg/day mouse=5.28*100/20=26.4 mg/kg/day per mouse; O-CPs dose: 300 mg/70 kg=4.29 mg/kg/day human*12.33=52.84 mg/kg/day per mouse. Serum levels of glucose, triglycerides, cholesterol, aspartate aminotransferase (AST), alanine aminotransferase (ALT), urea, and creatinine were analyzed with a portable automated chemistry analyzer (Samsung LABGEO PT10, Samsung Electronics Co., Suwon, Korea). Serum levels of MDA were analyzed by HPLC. Antioxidant enzymes (SOD, CAT, GSHPx) were measured using the relevant commercial kits according to the enzyme-linked immunosorbent assay (ELISA, Elx-800, Bio-Tek Instruments Inc, Vermont, USA) method. Serum, zinc and selenium levels in liver and lung were detected by atomic absorption spectroscopy (AAS). The samples size of the study was 42 mice (n=7; 6 groups) and analyzed with the help of G*Power package program (Version 3.1.9.2) with alpha error 0.05 and 85% power with effect size 0.65 calculated from previous studies. The data was analyzed using statistical analysis software (SPSS 17.0). In this study, conformity to the assumption of normality from the prerequisites of the parametric tests was performed using the “Shapiro-Wilk” test and the homogeneity of the variances were checked with the “Levene” test. Analysis of variance (ANOVA) test was performed to determine the differences between the groups and post-hoc Tukey test was used for multiple comparisons of the groups. Statistical significance was accepted as P<0.05.

Compound | Liver, CAT [2] | Liver, GSHPx [2] | Liver, MDA [2] | Liver, SOD [2] | Lung, CAT [2] | Lung, GSHPx [2] | Lung, MDA [2] | Lung, SOD [2] | ALP [2] | ALT [2] | AST [2] | BUN [2] | Creatine [2] | LDH [2] | T Bilirubin [2] | further results
NC(=O)c1ccc[n+]([C@@H]2O[C@H](CO)[C@@H](O)[C@H]2O)c1 [NR, nicotinamide riboside] |  |  |  |  |  |  |  |  |  |  |  |  |  |  |  | Liver GSH ([1]; liver): 33.25 ± 2.07^bc U/mg protein; Liver NADPH ([1]; liver): 44.42 ± 2.31^c nmol/g; Liver Nicotinamide (Nam) ([1]; liver): 1.60 ± 0.06^c μmol/g; Liver Nicotinamide adenine dinucleotide NAD+ ([1]; liver): 0.59 ± 0.04^c μmol/g; Liver Nicotinamide mono nucleotide (NMN) ([1]; liver): 0.30 ± 0.02^bc μmol/g; Liver Nicotinic acid (Na) ([1]; liver): 1.63 ± 0.09^abc μmol/g; CORT [1]: 102.16 ± 8.68^a ng/ml; Final Body Weight [1]: 222.86 ± 23.11^b g; GLU ([1]; serum glucose): 119.86 ± 7.10^ab mg/dl; ALT ([1]; serum): 98.00 ± 5.55 U/L; AST ([1]; serum): 114.71 ± 10.92 U/L; BUN ([1]; serum): 22.90 ± 1.87 mg/dL; CAT ([1]; serum): 114.69 ± 4.82^d U/ml; Creatine ([1]; serum): 0.37 ± 0.08; GSH-Px ([1]; serum): 26.28 ± 1.98^d U/ml; MDA ([1]; serum): 1.74 ± 0.07^b nmol/ml; SOD ([1]; serum): 61.36 ± 4.5^e U/ml
C[Se]CC[C@H](N)C(=O)O [Se, selenomethionine] | 41.89 ± 4.03^c U/mg | 44.79 ± 3.86^c U/mg | 5.86 ± 0.26^b nmol/mL | 95.16 ± 5.06^b U/mg | 32.29 ± 1.86^b U/mg | 33.86 ± 3.41^b U/mg | 6.67 ± 0.49^b nmol/mL | 59.32 ± 4.81^b U/mg | 285.43 ± 10.33^b IU/L | 261.57 ± 16.16^bc IU/L | 573.43 ± 59.23^b IU/L | 34.36 ± 3.26^b mg/dL | 0.59 ± 0.08^ab mg/dL | 192.11 ± 10.72^c IU/L | 0.95 ± 0.08^b mg/dL | 
zinc picolinate [Zn] | 43.06 ± 3.24^c U/mg | 36.86 ± 1.98^d U/mg | 5.92 ± 0.35^b nmol/mL | 75.94 ± 5.93^c U/mg | 28.53 ± 1.70^c U/mg | 28.08 ± 1.98^c U/mg | 6.83 ± 0.30^b nmol/mL | 50.36 ± 2.93^c U/mg | 292.71 ± 15.34^ab IU/L | 280.43 ± 8.85^b IU/L | 580.86 ± 32.61^b IU/L | 35.57 ± 3.20^ab mg/dL | 0.59 ± 0.06^ab mg/dL | 216.13 ± 11.39^b IU/L | 0.97 ± 0.08^b mg/dL | 
